Measured values from patent US11370798B2 (Vertex Pharmaceuticals Incorporated, priority 2012, dated 2022).

System: HCT116 colorectal cancer cells
Assay: Cisplatin sensitization assay (96 h cell viability MTS);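 note: Test-compound concentration that lowers the Cisplatin IC50 by a set fold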
Assay type: cell-based
Settings: compound and Cisplatin added simultaneously, Cisplatin sensitization value
Summary of the method: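 Viability read by MTS (1 h at 37° C) after 96 h co-exposure at 37° C, 5% CO2. Test compound and cisplatin were dosed simultaneously in a full concentration matrix, each 2-fold serially diluted from 10 μM final; sensitization values binned in μM.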

Row | SMILES | Cisplatin Sensitization Assay
1 | Nc1nn2cc(F)cnc2c1C(=O)Nc1cnccc1N1CCN(S(=O)(=O)C2CCOC2)CC1 (stereo not drawn) [I-N-179, 2-amino-6-fluoro-N-(4-(4-((tetrahydrofuran-3-yl)sulfonyl)piperazin-1-yl)pyridin-3-yl)pyrazolo[1,5-a]pyrimidine-3-carboxamide] | +++ (Cisplatin sensitization value of <0.02 μM)
2 | CN1CCC[C@@H]1C(=O)N1CCN(c2c(F)cncc2NC(=O)c2c(N)nn3cc(F)cnc23)CC1 [I-N-181, (R)-2-amino-6-fluoro-N-(5-fluoro-4-(4-(1-methylpyrrolidine-2-carbonyl)piperazin-1-yl)pyridin-3-yl)pyrazolo[1,5-a]pyrimidine-3-carboxamide] | +++ (Cisplatin sensitization value of <0.02 μM)
3 | Nc1nn2cc(F)cnc2c1C(=O)Nc1cncc(F)c1N1CCN2C(=O)CC[C@@H]2C1 [I-N-182, (R)-2-amino-6-fluoro-N-(5-fluoro-4-(6-oxohexahydropyrrolo[1,2-a]pyrazin-2(1H)-yl)pyridin-3-yl)pyrazolo[1,5-a]pyrimidine-3-carboxamide] | ++ (Cisplatin sensitization value>0.02 μM but <0.2 μM)
4 | CN1CCOC2(CCN(c3ccncc3NC(=O)c3c(N)nn4cc(F)cnc34)CC2)C1 [I-N-183, 2-amino-6-fluoro-N-(4-(4-methyl-1-oxa-4,9-diazaspiro[5.5]undecan-9-yl)pyridin-3-yl)pyrazolo[1,5-a]pyrimidine-3-carboxamide] | +++ (Cisplatin sensitization value of <0.02 μM)
5 | Nc1nn2cc(F)cnc2c1C(=O)Nc1cncc(F)c1N1CCC(c2nccs2)CC1 [I-N-184, 2-amino-6-fluoro-N-(5-fluoro-4-(4-(thiazol-2-yl)piperidin-1-yl)pyridin-3-yl)pyrazolo[1,5-a]pyrimidine-3-carboxamide] | ++ (Cisplatin sensitization value>0.02 μM but <0.2 μM)
6 | CCN1CCCC1C(=O)N1CCN(c2c(F)cncc2NC(=O)c2c(N)nn3cc(F)cnc23)CC1 (stereo not drawn) [I-N-185, 2-amino-N-(4-(4-(1-ethylpyrrolidine-2-carbonyl)piperazin-1-yl)-5-fluoropyridin-3-yl)-6-fluoropyrazolo[1,5-a]pyrimidine-3-carboxamide] | ++ (Cisplatin sensitization value>0.02 μM but <0.2 μM)
7 | Nc1nn2cc(F)cnc2c1C(=O)Nc1cncc(F)c1N1CCN2C(=O)CC[C@@H]2C1 [I-N-186, (R)-2-amino-6-fluoro-N-(5-fluoro-4-(6-oxohexahydropyrrolo[1,2-a]pyrazin-2(1H)-yl)pyridin-3-yl)pyrazolo[1,5-a]pyrimidine-3-carboxamide] | +++ (Cisplatin sensitization value of <0.02 μM)
8 | Nc1nn2cc(F)cnc2c1C(=O)Nc1cncc(F)c1N1CCN(C(=O)CN2CCCC2)CC1 [I-N-187, 2-amino-6-fluoro-N-(5-fluoro-4-(4-(2-(pyrrolidin-1-yl)acetyl)piperazin-1-yl)pyridin-3-yl)pyrazolo[1,5-a]pyrimidine-3-carboxamide] | +++ (Cisplatin sensitization value of <0.02 μM)
9 | CN1CCC(S(=O)(=O)N2CCN(c3ccncc3NC(=O)c3c(N)nn4cc(F)cnc34)CC2)CC1 [I-N-188, 2-amino-6-fluoro-N-(4-(4-((1-methylpiperidin-4-yl)sulfonyl)piperazin-1-yl)pyridin-3-yl)pyrazolo[1,5-a]pyrimidine-3-carboxamide] | +++ (Cisplatin sensitization value of <0.02 μM)
10 | Nc1nn2cc(F)cnc2c1C(=O)Nc1cncc(F)c1N1CCC(N2CCOCC2)CC1 [I-N-189, 2-amino-6-fluoro-N-(5-fluoro-4-(4-morpholinopiperidin-1-yl)pyridin-3-yl)pyrazolo[1,5-a]pyrimidine-3-carboxamide] | +++ (Cisplatin sensitization value of <0.02 μM)
11 | CS(=O)(=O)C1CCN(c2ccncc2NC(=O)c2c(N)nn3cc(F)cnc23)CC1 [I-N-190, 2-amino-6-fluoro-N-(4-(4-(methylsulfonyl)piperidin-1-yl)pyridin-3-yl)pyrazolo[1,5-a]pyrimidine-3-carboxamide] | +++ (Cisplatin sensitization value of <0.02 μM)
12 | CN1CCN(C(=O)C2CCN(c3c(F)cncc3NC(=O)c3c(N)nn4cc(F)cnc34)C2)CC1 (stereo not drawn) [I-N-191, 2-amino-6-fluoro-N-(5-fluoro-4-(3-(4-methylpiperazine-1-carbonyl)pyrrolidin-1-yl)pyridin-3-yl)pyrazolo[1,5-a]pyrimidine-3-carboxamide] | + (Cisplatin sensitization value>0.2 μM but <5 μM)
13 | CN1CCN(CC2CCN(c3c(F)cncc3NC(=O)c3c(N)nn4cc(C5(C#N)CC5)cnc34)CC2)CC1 [I-N-192, 2-amino-6-(1-cyanocyclopropyl)-N-(5-fluoro-4-(4-((4-methylpiperazin-1-yl)methyl)piperidin-1-yl)pyridin-3-yl)pyrazolo[1,5-a]pyrimidine-3-carboxamide] | +++ (Cisplatin sensitization value of <0.02 μM)
14 | CN1CCN(CC2CCN(c3c(F)cncc3NC(=O)c3c(N)nn4cc(F)cnc34)CC2)C(=O)C1 [I-N-193, 2-amino-6-fluoro-N-(5-fluoro-4-(4-((4-methyl-2-oxopiperazin-1-yl)methyl)piperidin-1-yl)pyridin-3-yl)pyrazolo[1,5-a]pyrimidine-3-carboxamide] | +++ (Cisplatin sensitization value of <0.02 μM)
15 | CN1CC(C(=O)N2CCN(c3c(F)cncc3NC(=O)c3c(N)nn4cc(F)cnc34)CC2)C1 [I-N-194] | +++ (Cisplatin sensitization value of <0.02 μM)
16 | Nc1nn2cc(F)cnc2c1C(=O)Nc1cnccc1N1CCN(S(=O)(=O)C2COC2)CC1 [I-N-195, 2-amino-6-fluoro-N-(4-(4-(oxetan-3-ylsulfonyl)piperazin-1-yl)pyridin-3-yl)pyrazolo[1,5-a]pyrimidine-3-carboxamide] | +++ (Cisplatin sensitization value of <0.02 μM)
17 | Nc1nn2cc(F)cnc2c1C(=O)Nc1cnccc1N1CCC(S(=O)(=O)N2CCN3CCC2CC3)CC1 [I-N-196, N-(4-(4-(1,4-diazabicyclo[3.2.2]nonan-4-ylsulfonyl)piperidin-1-yl)pyridin-3-yl)-2-amino-6-fluoropyrazolo[1,5-a]pyrimidine-3-carboxamide] | +++ (Cisplatin sensitization value of <0.02 μM)
18 | Nc1nn2cc(F)cnc2c1C(=O)Nc1cnccc1N1CCC(CN2CCC(F)(F)C2)CC1 [I-N-197, 2-amino-N-(4-(4-((3,3-difluoropyrrolidin-1-yl)methyl)piperidin-1-yl)pyridin-3-yl)-6-fluoropyrazolo[1,5-a]pyrimidine-3-carboxamide] | +++ (Cisplatin sensitization value of <0.02 μM)
19 | CN1CCC[C@H]1C(=O)N1CCN(c2ccncc2NC(=O)c2c(N)nn3cc(F)cnc23)CC1 [I-N-198, (S)-2-amino-6-fluoro-N-(4-(4-(1-methylpyrrolidine-2-carbonyl)piperazin-1-yl)pyridin-3-yl)pyrazolo[1,5-a]pyrimidine-3-carboxamide] | ++ (Cisplatin sensitization value>0.02 μM but <0.2 μM)
20 | CN1CCC[C@@H]1C(=O)N1CCN(c2ccncc2NC(=O)c2c(N)nn3cc(F)cnc23)CC1 [I-N-199, (R)-2-amino-6-fluoro-N-(4-(4-(1-methylpyrrolidine-2-carbonyl)piperazin-1-yl)pyridin-3-yl)pyrazolo[1,5-a]pyrimidine-3-carboxamide] | +++ (Cisplatin sensitization value of <0.02 μM)
21 | Nc1nn2cc(F)cnc2c1C(=O)Nc1cnccc1N1CCC(S(=O)(=O)C2COC2)CC1 [I-N-200, 2-amino-6-fluoro-N-(4-(4-(oxetan-3-ylsulfonyl)piperidin-1-yl)pyridin-3-yl)pyrazolo[1,5-a]pyrimidine-3-carboxamide] | +++ (Cisplatin sensitization value of <0.02 μM)
22 | Nc1nn2cc(F)cnc2c1C(=O)Nc1cncc(F)c1N1CCN(S(=O)(=O)C2COC2)CC1 [I-N-201] | +++ (Cisplatin sensitization value of <0.02 μM)
23 | Nc1nn2cc(F)cnc2c1C(=O)Nc1cnccc1-n1ccnc1C1CC1 [I-N-202, 2-amino-N-(4-(2-cyclopropyl-1H-imidazol-1-yl)pyridin-3-yl)-6-fluoropyrazolo[1,5-a]pyrimidine-3-carboxamide] | +++ (Cisplatin sensitization value of <0.02 μM)
24 | Nc1nn2cc(F)cnc2c1C(=O)Nc1cncc(F)c1N1CCN(C(=O)C2CC3CCCCN3C2)CC1 (stereo not drawn) [I-N-203, 2-amino-6-fluoro-N-(5-fluoro-4-(4-(octahydroindolizine-2-carbonyl)piperazin-1-yl)pyridin-3-yl)pyrazolo[1,5-a]pyrimidine-3-carboxamide] | +++ (Cisplatin sensitization value of <0.02 μM)
25 | CC(C)N1CCCC1C(=O)N1CCN(c2c(F)cncc2NC(=O)c2c(N)nn3cc(F)cnc23)CC1 (stereo not drawn) [I-N-205, 2-amino-6-fluoro-N-(5-fluoro-4-(4-(1-isopropylpyrrolidine-2-carbonyl)piperazin-1-yl)pyridin-3-yl)pyrazolo[1,5-a]pyrimidine-3-carboxamide] | ++ (Cisplatin sensitization value>0.02 μM but <0.2 μM)
26 | CC(C)N1CCC(C(=O)N2CCN(c3c(F)cncc3NC(=O)c3c(N)nn4cc(F)cnc34)CC2)C1 (stereo not drawn) [I-N-206, 2-amino-6-fluoro-N-(5-fluoro-4-(4-(1-isopropylpyrrolidine-3-carbonyl)piperazin-1-yl)pyridin-3-yl)pyrazolo[1,5-a]pyrimidine-3-carboxamide] | +++ (Cisplatin sensitization value of <0.02 μM)
27 | COCCS(=O)(=O)C1CCN(c2ccncc2NC(=O)c2c(N)nn3cc(F)cnc23)CC1 [I-N-208, 2-amino-6-fluoro-N-(4-(4-((2-methoxyethyl)sulfonyl)piperidin-1-yl)pyridin-3-yl)pyrazolo[1,5-a]pyrimidine-3-carboxamide] | +++ (Cisplatin sensitization value of <0.02 μM)
